The record followed here is patent US20180110824A1, “Macrocyclic Modulators of the Ghrelin Receptor” (Ocera Therapeutics, Inc., priority 2016, published 2018).

Molecules are shown by their SMILES. Read-outs that look alike come from different tables or passages of the source.

In one assay the target is motilin receptor (Homo sapiens, UniProt O43193). Kind of assay: Selectivity for the ghrelin receptor versus the motilin receptor. Format: binding. The source says:
The level of agonist activity and selectivity for representative compounds of the invention are shown below in Table 4.

For assay [1], the target named is T1, human ghrelin receptor (hGHS-R1a) (Homo sapiens, UniProt Q92847).
T1 construct: host or cells: CHO-K1 co-expressing Gα16 and mitochondrially targeted aequorin
T1 sequence (Q92847 whole entry): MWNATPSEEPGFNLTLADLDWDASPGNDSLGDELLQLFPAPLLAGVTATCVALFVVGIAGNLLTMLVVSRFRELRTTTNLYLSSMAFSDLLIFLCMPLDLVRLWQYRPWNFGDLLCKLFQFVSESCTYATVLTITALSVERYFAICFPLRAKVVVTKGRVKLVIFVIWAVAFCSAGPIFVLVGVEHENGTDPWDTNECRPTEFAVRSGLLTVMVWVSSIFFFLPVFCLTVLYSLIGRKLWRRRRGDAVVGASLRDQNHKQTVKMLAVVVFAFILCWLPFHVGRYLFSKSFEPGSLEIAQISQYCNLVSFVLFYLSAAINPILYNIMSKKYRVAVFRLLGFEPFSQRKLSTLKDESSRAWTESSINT
Kind of assay: Aequorin functional assay (ghrelin receptor), CHO-K1 cells co-expressing Gα16 and aequorin. Format: cell-based. The following applies: Table 4; functional (agonist) activity; TFA salts unless otherwise noted; read-out: EC50. On the procedure:
This cell line is typically constructed by transfection of the human ghrelin receptor into CHO-K1 cells co-expressing Gα16 and the mitochondrially targeted Aequorin (Ref #ES-WT-A5). • 1. […] Assay buffer: DMEM (Dulbecco's Modified Eagles Medium) containing 0.1% BSA (bovine serum albumin; pH 7.0). • 3. Coelenterazine (Molecular Probes, Leiden, The Netherlands). • Final test concentrations (N=8) for compounds of the invention: 10, 1, 0.3, 0.1, 0.03, 0.01, 0.003, 0.001 μM.
Stock solutions of compounds (10 mM in 100% DMSO) were provided frozen on dry ice and stored at −20° C. prior to use. […] Assay plates were then prepared by appropriate dilution in DMEM medium containing 0.1% BSA. Under these conditions, the maximal final DMSO concentration in the assay was <0.6%.
AequoScreen™ cells were collected from culture plates with Ca^2+ and Mg^2+-free phosphate buffered saline (PBS) supplemented with 5 mM EDTA, pelleted for 2 min at 1000×g re-suspended in DMEM—Ham's F12 containing 0.1% BSA at a density of 5×10^6 cells/mL, and incubated O/N at rt in the presence of 5 μM coelenterazine. After loading, cells were diluted with assay buffer to a concentration of 5×10^5 cells/mL.
For agonist testing, 50 μL of the cell suspension was mixed with 50 μL of the appropriate concentration of test compound or ghrelin (reference agonist) in 96-well plates (duplicate samples). Ghrelin (reference agonist) was tested at several concentrations concurrently with the test compounds in order to validate the experiment. The emission of light resulting from receptor activation in response to ghrelin or test compounds was recorded using the Hamamatsu FDSS 6000 reader (Hamamatsu Photonics K.K., Japan).
Results were expressed as Relative Light Units (RLU). […] EC50, Hill slope and % Emax values are reported.
• 1. Assay performed on CHO-K1 cells expressing the transfected, cloned human ghrelin receptor (hGHS-R1a) and Gα16. • 2. Suspended cells incubated O/N with coelenterazine. • 3. Stimulation of hGHS-R1a activates Gα16, causing […] Ca2+ release which ultimately leads to the oxidation of coelenterazine and the emission of a quantitative luminescent signal. • 4. Ghrelin was used as the positive control. • 5.

For assay [2], the target named is T2, human growth hormone secretagogue receptor (hGHS-R1a) (Homo sapiens, UniProt Q92847).
T2 construct: purchased PerkinElmer BioSignal #RBHGHSM; host or cells: HEK-293, stably transfected
T2 sequence (Q92847 whole entry): as above
Nature of the assay: Competitive radioligand binding assay (ghrelin receptor), [125I]-ghrelin displacement on GHS-R/HEK 293 membranes. The settings on record: read-out: Ki.

In assay [3] the test system is morphine-delayed gastric emptying and gastrointestinal transit in rats. Nature of the assay: Opioid (morphine)-delayed gastric emptying and gastrointestinal transit in rats. Format: in vivo, rat. The following applies: 3 mg/kg, s.c., rats, FIG. 16A. The source says: Opioid analgesics, such as morphine, are well known to delay gastrointestinal transit which is an important side-effect for this class of drugs. The clinical term for this syndrome is opioid bowel dysfunction (OBD). Importantly, patients recovering from abdominal surgery experience post-operative ileus that is further exacerbated by concomitant opioid therapy for post-surgical pain.
• 1. Rats (male, Sprague-Dawley, 250-300 g) are implanted with jugular vein catheters to accommodate dosing of test articles. • 2. Overnight-fasted rats are administered morphine (3 mg/kg s.c.). • 3. […] Radioactivity (^99mTc) in each tissue isolate is measured as a means of measuring the transit of the meal.

For assay [4], the system named is gastric emptying in fasted rats. Nature of the assay: Gastric emptying in fasted rats (phenol red methylcellulose meal). Format: in vivo, rat. The procedure:
To examine the effects of compounds of the invention in a model for gastroparesis, compounds were evaluated for possible effects on gastric emptying in fasted rats.
GHRP-6 and test samples were dissolved in vehicle of 9% HPBCD/0.9% NaCl. Immediately following oral administration of methylcellulose (2%) containing phenol red (0.05%) (2 mL/rat), test substances or vehicle (9% HPBCD/0.9% NaCl) were each administered intravenously (i.v.) at a dosing volume of 5 mL/kg.
Male Wistar rats were provided by LASCO (A Charles River Licensee Corporation, Taiwan). Space allocation for 6 animals was 45×23×15 cm. Animals were housed in APEC® cages and maintained in a controlled temperature (22° C.-24° C.) and humidity (60% -80%) environment with 12 h light, 12 h dark cycles for at least one week in the laboratory prior to being used. Free access to standard lab chow for rats (Lab Diet, Rodent Diet, PMI Nutrition International, USA) and tap water was granted. All aspects of this work including housing, experimentation and disposal of animals were performed in general accordance with the Guide for the Care and Use of Laboratory Animals (National Academy Press, Washington, D.C., 1996).
Test substances were each administered intravenously to a group of 5 O/N-fasted Wistar derived male rats weighing 200±20 g immediately after methylcellulose (2%) containing phenol red (0.05%) was administered orally at 2 mL/animal. The animals were then sacrificed 15 minutes later. The stomach was immediately removed, homogenized in 0.1 N NaOH (5 mL) and centrifuged. Following protein precipitation by 20% trichloroacetic acid (0.5 mL)and re-alkalization of the supernatant with 0.1 N NaOH, total phenol red remaining in the stomach was determined by a colorimetric method at 560 nm. A 30 percent or more (≥30%) increase in gastric emptying, detected as the decrease in phenol red concentration in the stomach relative to the vehicle control group, is considered significant.
• 1. Overnight-fasted rats (male Wistar, ˜200 g, N=5/group) were given a meal of methylcellulose (2%) by intragastric gavage. The meal was labeled with phenol red (0.05%). • 2. […] Animals were sacrificed 15 minutes later; the stomach was immediately removed and homogenized in 0.1 N NaOH and centrifuged. • 4. Total phenol red remaining in the stomach was quantified by a colorimetric method at 560 nm. • 5. A >30% increase in gastric emptying, detected based on the phenol red concentration in comparison to the control group, is considered significant.

The mark [5] stands for this setting: Binding activity at the human ghrelin receptor, [125I]-ghrelin displacement.
Setting [6] is: Table 4, TFA salts unless otherwise noted.
The mark [7] stands for this setting: Table 3B, binding activity at the human ghrelin receptor.

motilin receptor, sequence (O43193 whole entry, species assumed): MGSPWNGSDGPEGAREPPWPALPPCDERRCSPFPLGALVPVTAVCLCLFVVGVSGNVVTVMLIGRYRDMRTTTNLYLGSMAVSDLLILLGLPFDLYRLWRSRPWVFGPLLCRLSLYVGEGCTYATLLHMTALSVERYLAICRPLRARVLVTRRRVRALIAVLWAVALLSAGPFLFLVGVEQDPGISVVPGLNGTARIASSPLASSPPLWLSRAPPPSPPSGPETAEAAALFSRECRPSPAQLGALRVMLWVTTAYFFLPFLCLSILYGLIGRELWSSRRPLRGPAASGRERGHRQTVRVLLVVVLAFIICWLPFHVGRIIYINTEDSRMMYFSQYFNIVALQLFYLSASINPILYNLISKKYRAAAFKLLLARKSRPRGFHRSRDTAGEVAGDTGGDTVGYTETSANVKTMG

As a reminder, the EC50 is the midpoint of the concentration-response curve. The term Ki denotes a measure of affinity in units of concentration, obtained from inhibition or displacement. With `CCC[C@@H]1NCCOc2ccccc2CCCNC(=O)[C@@H](Cc2c[nH]c3ccccc23)NC(=O)CN(C)C1=O` [Compound 6], the Selectivity at motilin receptor is 71/1. Also, the EC50 in assay [1] fell in the range of 1 to 100 nM. In addition, the Ki in assay [2] (setting [5]) and in assay [2] (setting [6]) was 100 to 1000 nM each time.

Take `CC(C)C[C@@H]1NCCOc2ccccc2/C=C/CNC(=O)[C@H](Cc2ccccc2)NC(=O)C2(CCCC2)NC1=O` [Compound 8]: the Selectivity on motilin receptor is 200/1. Also, the half-maximal effective concentration (EC50) in assay [1] is 1 to 100 nM. Besides, the Ki in assay [2] (setting [5]) and in assay [2] (setting [6]) was 10 to 100 nM throughout.

In the case of `CC(C)[C@@H]1NCCOc2ccccc2CCCNC(=O)[C@H](Cc2ccccc2)NC(=O)C2(CCCC2)NC1=O` [Compound 9], the Selectivity at motilin receptor was 117/1. For the same compound, the EC50 in assay [1] lay in the range of 100 to 1000 nM. Also, the Ki in assay [2] (setting [5]) and in assay [2] (setting [6]) was 100 to 1000 nM in each case.

As to `CCC[C@@H]1NCCOc2ccccc2CCCNC(=O)[C@@H](Cc2ccccc2)NC(=O)CN(C)C1=O` [Compound 10], the Selectivity on motilin receptor was 304/1. Also, in assay [1], the EC50 was in the range of 1 to 100 nM. The inhibition constant Ki in assay [2] (setting [5]) and in assay [2] (setting [6]) was 10 to 100 nM throughout.

Take `CN1CC[C@]23c4c5ccc(O)c4O[C@H]2[C@@H](O)C=C[C@H]3[C@H]1C5` [Morphine, morphine, reference compound]: in assay [3], the “gastric emptying and intestinal transit” value was “significantly delayed gastric emptying and intestinal transit”.

For `CCC[C@@H]1NCCOc2ccccc2CCCNC(=O)[C@@H](Cc2ccc(O)cc2)NC(=O)CN(C)C1=O` [compound 7], the Selectivity on motilin receptor was >100/1. Moreover, the half-maximal effective concentration (EC50) in assay [1] is 1 to 100 nM. Moreover, the Ki in assay [2] (setting [5]) and in assay [2] (setting [6]) was 100 to 1000 nM in each case.

Turning to `C[C@@H]1C(=O)N[C@H](Cc2ccccc2)C(=O)NCCCc2ccccc2OCCN[C@@H](C2CC2)C(=O)N1C` [compound 17], the Selectivity on motilin receptor was 2500/1. For the same compound, the EC50 in assay [1] was in the range of 1 to 100 nM. Moreover, the Ki in assay [2] (setting [5]) and in assay [2] (setting [6]) was 0.1 to 10 nM each time.

For `O=C1NC/C=C/c2ccccc2OCCNC2(CCCC2)C(=O)NC2(CCCC2)C(=O)N[C@H]1Cc1ccccc1` [compound 18], the Selectivity at motilin receptor is on record as 222/1. The EC50 in assay [1] was in the range of 1 to 100 nM. Besides, the Ki in assay [2] (setting [5]), in assay [2] (Table 3C) and in assay [2] (setting [6]) was 10 to 100 nM in each case.

With `CC(C)C[C@@H]1NCCOc2ccccc2/C=C/CNC(=O)[C@H](Cc2cccc(Cl)c2)NC(=O)C2(CCCC2)NC1=O` [compound 21], the Selectivity at motilin receptor is given as 1078/1. In addition, the EC50 in assay [1] lay within 1 to 100 nM. Also, the Ki in assay [2] (setting [5]) and in assay [2] (setting [6]) was 0.1 to 10 nM throughout.

Take `CCC(C)C1NCCOc2ccccc2CCCNC(=O)C(Cc2ccc(F)cc2)NC(=O)C(C)N(C)C1=O` (stereo not shown) [compound 26]: on motilin receptor, the Selectivity is recorded as >7700/1. Moreover, in assay [1], the EC50 lay within 1 to 100 nM. Further, the Ki in assay [2] (setting [5]) and in assay [2] (setting [6]) was 0.1 to 10 nM in each case.

In the case of `CCC(C)[C@@H]1NCCOc2ccccc2CCCNC(=O)[C@@H](Cc2ccc(OC)cc2)NC(=O)[C@@H](C)N(C)C1=O` (stereo partly shown) [compound 27], the Selectivity at motilin receptor is >7100/1. For the same compound, the EC50 in assay [1] fell in the range of 1 to 100 nM. For the same compound, the inhibition constant (Ki) in assay [2] (setting [5]) and in assay [2] (setting [6]) was 0.1 to 10 nM in each case.

`C[C@@H]1C(=O)N[C@H](Cc2ccc(Cl)cc2Cl)C(=O)NCCCc2ccccc2OCCN[C@@H](C2CC2)C(=O)N1C` [compound 314]: the Selectivity on motilin receptor was >5500/1. In addition, the EC50 in assay [1] is 1 to 100 nM. Also, the inhibition constant Ki in assay [2] (setting [7]) and in assay [2] (setting [6]) was 0.1 to 10 nM throughout.

As for `C[C@H]1NC(=O)C2(CCCC2)NCCOc2ccccc2/C=C/CNC(=O)[C@H](Cc2cccc(Cl)c2)NC1=O` [compound 351], at motilin receptor, the Selectivity is listed as 450/1. In assay [1], the EC50 fell in the range of 1 to 100 nM. Moreover, the Ki in assay [2] (Table 3C) and in assay [2] (setting [6]) was 10 to 100 nM each time.

As to `C[C@@H]1C(=O)N[C@H](Cc2ccc(F)cc2)C(=O)NCCCc2ccc(F)cc2OCCN[C@@H](C2CC2)C(=O)N1C` [compound 372], the Selectivity on motilin receptor is reported as 2500/1. Also, in assay [1], the EC50 lay in the range of 1 to 100 nM. Moreover, the Ki in assay [2] (setting [7]) and in assay [2] (setting [6]) was 0.1 to 10 nM each time.

In the case of `C[C@@H]1C(=O)N[C@H](Cc2ccc(F)cc2)C(=O)NCCCc2cc(NS(C)(=O)=O)ccc2OCCN[C@@H](C2CC2)C(=O)N1C` [compound 374], the Selectivity at motilin receptor is given as 250/1. Further, the EC50 in assay [1] lay within 1 to 100 nM. For the same compound, the Ki in assay [2] (setting [7]) and in assay [2] (setting [6]) was 10 to 100 nM each time.

With `CC[C@H](C)[C@@H]1NCCOc2ccc(F)cc2CCCNC(=O)[C@H](Cc2cccc(Cl)c2)NC(=O)C2(CCCC2)NC1=O` [compound 382], the Selectivity on motilin receptor is 74/1. The EC50 in assay [1] lay within 100 to 1000 nM. The inhibition constant Ki in assay [2] (setting [7]) and in assay [2] (setting [6]) was 10 to 100 nM in each case.

As for `CCN(CC)CCNC(=O)c1cc(Cl)c(N)cc1OC` [metoclopramide, Metoclopramide, reference compound], the “increase in gastric emptying relative to the vehicle control group” value in assay [4] (10 mg/kg i.v., fasted rats) worked out at 41%. For the same compound, the “gastric emptying of a meal in naïve rat” value in assay [4] (i.v., FIGS. 14A and 14B) is “demonstrated significant gastric emptying”.
